The assay concerns Tetranychus urticae. Briefly: Test for confirming effect on Tetranychus urticae (kidney bean leaves in petri dish, sprinkling; survival numbers of next generation). The format is in vivo. On the procedure:
Test for Confirming Effect on Tetranychus urticae
Ten Tetranychus urticae female imagoes were inoculated on kidney bean leaves placed in each petri dish on the day before chemical solution treatment.
A flowable agent containing the compound A was diluted with water containing RABIDEN 3S diluted 5000 times to prepare chemical solutions A containing the compound A at twice concentrations described in Table 3, respectively.
A preparation containing the compound B or a flowable agent containing the compound B was diluted with water containing RABIDEN 3S diluted 5000 times to prepare chemical solutions B containing the compound B at twice concentrations described in Table 3, respectively.
{Preparations Used in Test Examples and Containing the Compound B}
• Test numbers a and b: hexythiazox: Nissorun wettable powder (produced by Nippon Soda Co., Ltd.) • Test numbers c and d: abamectin: Agri-Mek (produced by Syngenta Japan K.K.) • Test numbers e and f: fenpyroximate: DANITRON flowable (produced by NIHON NOHYAKU CO., LTD.) • Test numbers g and h: acetamiprid: MOSPILAN water soluble powder (produced by Nippon Soda Co., Ltd.) • Test number i: propargite: Omite wettable powder (produced by NIHON NOHYAKU CO., LTD.)
A mixed solution obtained by mixing the chemical solution A and the chemical solution B in an equivalent amount was sprinkled on a petri dish containing kidney bean leaves on which Tetranychus urticae was inoculated at 2 mg per 1 cm^2 with a rotatory sprinkling tower (AB mixture application plot).
The chemical solution A and the chemical solution B were twice diluted with the water containing RABIDEN 3S diluted 5000 times to obtain a chemical solution A′ and a chemical solution B′, respectively.
The chemical solution A′ was sprinkled on another petri dish containing kidney bean leaves on which Tetranychus urticae was inoculated at 2 mg per 1 cm^2 with a rotatory sprinkling tower (A single application plot). The Chemical solution B′ was sprinkled on another petri dish containing kidney bean leaves on which Tetranychus urticae was inoculated at 2 mg per 1 cm^2 with a rotatory sprinkling tower (B single application plot).
Then, the petri dishes on which the chemical solutions were sprinkled were placed in a thermostatic chamber at a temperature of 25° C. and a humidity of 60%. All the imagoes were removed after 3 days elapsed from the sprinkling. Then, the petri dishes from which the imagoes were removed were placed in a thermostatic chamber at a temperature of 25° C. and a humidity of 60%. When 10 days elapsed from the sprinkling, the survival numbers of the next generation were investigated, and the effectivenesses were calculated. Effectiveness (%)=(Cn−Tn)/Cn×100 • Cn: Survival numbers of next generation in non-treatment plot after 10 days • Tn: Survival numbers of next generation in treatment plot after 10 days
To show the degree of a synergistic effect, the “effectiveness expectation” was calculated based on the Colby method. When the effectiveness is higher than the “effectiveness expectation”, it is determined that there is a synergistic effect. Expectation of effectiveness (%)(E)=X+Y−XY/100 • X: measurement of effectiveness in B single application plot (%) • Y: measurement of effectiveness in A single application plot (%)

With `Cc1nn(C)c(Oc2ccccc2)c1C=NOCc1ccc(C(=O)OC(C)(C)C)cc1` [fenpyroximate], the “Effectiveness Found” value (fenpyroximate 2.5 ppm, B single application plot, 10 days after sprinkling) is 67%.
Regarding `C[C@@H]1[C@@H](c2ccc(Cl)cc2)SC(=O)N1C(=O)NC1CCCCC1` [hexythiazox], the “Effectiveness Found” value (hexythiazox 1 ppm, B single application plot, 10 days after sprinkling) came out at 58%.
In the case of `C#CCOS(=O)OC1CCCCC1Oc1ccc(C(C)(C)C)cc1` (centres unmarked) [propargite], the “Effectiveness Found” value (propargite 5 ppm, B single application plot, 10 days after sprinkling) came out at 24%.
Take `CCN(Oc1cc(Br)cc(C(F)(F)F)c1)C(=O)NC(C)(C)C(=O)NCC(F)(F)F` [Compound (II), 2-{3-[3-bromo-5-(trifluoromethyl)phenoxy]-3-ethylureido}-2-methyl-N-(2,2,2-trifluoroethyl)propanamide]: the “Effectiveness Found” value (Compound (II) 2.3 ppm, A single application plot, next generation 10 days after sprinkling) stood at 52% and the “Effectiveness Found” value (Compound (II) 4.7 ppm, A single application plot, next generation 10 days after sprinkling) stood at 74%.
In the case of `C/C(=N\C#N)N(C)Cc1ccc(Cl)nc1` [acetamiprid], the “Effectiveness Found” value (acetamiprid 100 ppm, B single application plot, 10 days after sprinkling) is recorded as 5%.
With `CCCOc1cc(C(F)(F)F)ccc1O[C@H]1C[C@H]2CCC[C@@H](C1)N2Oc1ccc(C(F)(F)F)cn1` [acynonapyr], the “Effectiveness Found” value (acynonapyr 0.4 ppm, B single application plot, 10 days after sprinkling) stood at 58%.
In the case of abamectin, the “Effectiveness Found” value (abamectin 0.07 ppm, B single application plot, 10 days after sprinkling) is 42%.

Source of the values: US12465049B2, “Pest control method, and pest control agent composition and pest control agent set” (Nippon Soda Co., Ltd., priority 2019, dated 2025).
